Test: xn = mol fraction of the nth substance listed
Settings: 101 kPa, x1 = 0.3333

SMILES	viscosity (283.15 K)	viscosity (288.15 K)	viscosity (298.15 K)	viscosity (303.15 K)	viscosity (313.15 K)	viscosity (318.15 K)	viscosity (323.15 K)	viscosity (333.15 K)	viscosity (338.15 K)	viscosity (343.15 K)	viscosity (348.15 K)	viscosity (353.15 K)	viscosity (308.15 K)	viscosity (328.15 K)
CC[n+]1ccn(C)c1.N#C[S-] + CS(C)=O	3.95 mPa·s	3.58 mPa·s	2.92 mPa·s	2.63 mPa·s	2.12 mPa·s	1.91 mPa·s	1.73 mPa·s	1.44 mPa·s	1.34 mPa·s	1.26 mPa·s	1.21 mPa·s	1.19 mPa·s	–	–
CCOS(=O)(=O)[O-].CC[n+]1ccn(C)c1 + CS(C)=O	4.35 mPa·s	–	3.16 mPa·s	2.83 mPa·s	–	2.02 mPa·s	1.82 mPa·s	1.5 mPa·s	1.39 mPa·s	1.32 mPa·s	–	1.24 mPa·s	2.53 mPa·s	1.64 mPa·s

Reference: a compilation of properties of binary mixtures (doi:10.1016/j.fluid.2022.113559)
